Like-named read-outs stand apart in the source and are kept apart here.
What was measured:
[1] = Hydrolysis Assay of Example A1 (conversion by LCMS); type: physicochemical; conditions: for Conversion (%) / Notes (hydrolysis): 0.5 mM, 0.01M HCl
Method: The hydrolysis kinetics was under a certain temperature and measured by LCMS at a certain time interval. The corresponding LCMS chromatograms were recorded and the conversions were calculated. The hydrolysis conditions and the data were summarized in below table. LCMS spectra were obtained using Agilent 1200/G1956A or SHIMADZU LCMS-2020. Standard LCMS conditions were as follows (running time 1.55 minutes): • Acidic condition: Mobile Phase A: 0.0375% TFA in water (v/v). Mobile Phase B: 0.01875% TFA in acetonitrile (v/v); Column: Kinetex EVO C18 30*2.1 mm, 5 μm. • Basic condition: Mobile Phase A: 0.025% NH3·H2O in water (v/v). Mobile Phase B: Acetonitrile; Column: Kinetex EVO C18 2.1×30 mm, 5 μm. • Conversion (%)=peak area 1/(peak area 1+peak area 2)*100%, peak area 1 is the integration of hydrolyzed product, peak area 2 is the integration of starting material.

[2] = type: physicochemical; conditions: SGF with pepsin, pH 1.5, 37° C., 0.5 mM
[3] = type: physicochemical; conditions: DI water, 25° C., 0.5 mM
[4] = 5 μM
[5] = Plasma Stability Assay of Example A3, mouse plasma; conditions: 5 μM, 37° C., % of prodrug compound remaining
[6] = Plasma Stability Assay of Example A3, human plasma; conditions: 5 μM, 37° C., % of prodrug compound remaining
[7] = 10 μM
[8] = 10 μM; remark: listed apart in the source

SMILES	Condition 1 Conversion (%) ([2]; time 1 min)	Condition 1 Conversion (%) ([2]; time 5 min)	Condition 1 Conversion (%) ([2]; time 30 min)	Condition 1 Conversion (%) ([2]; time 1 h)	Condition 1 Conversion (%) ([2]; time 4 h)	Condition 1 Conversion (%) ([2]; time 24 h)	Human Plasma Compound 001 (%) ([4]; 0 min)	Mouse Plasma Prodrug (%) ([5]; 0 min)	Mouse Plasma Prodrug (%) ([5]; 15 min)	Mouse Plasma Prodrug (%) ([5]; 30 min)	Mouse Plasma Prodrug (%) ([5]; 60 min)	Mouse Plasma Prodrug (%) ([5]; 120 min)	Mouse Plasma Prodrug (%) ([5]; 240 min)	Human Plasma Prodrug (%) ([6]; 0 min)	Human Plasma Prodrug (%) ([6]; 15 min)	Human Plasma Prodrug (%) ([6]; 30 min)	Human Plasma Prodrug (%) ([6]; 60 min)	Human Plasma Prodrug (%) ([6]; 120 min)	Human Plasma Prodrug (%) ([6]; 240 min)	further results
COc1ccc([C@@]23CCC(=NO)C[C@@H]2N(C)CC3)cc1OC (mixture of isomers) [Compound 037]	0	0	82.3	89	89.2	89.5	–	–	–	–	–	–	–	–	–	–	–	–	–	conversion to mesembrine in the Hydrolysis Assay ([1]; acidic pH 2.0, temperatures of 25 or 37° C.): converted to mesembrine; Conversion (%) ([1]; pH = 2.0, 37° C., 10 min): 59%; Conversion (%) ([1]; pH = 2.0, 37° C., 60 min): 84%; Conversion (%) ([1]; pH = 2.0, 37° C., 90 min): 87%
COc1ccc([C@]23CCN(C)[C@H]2CC2(CC3)OCCO2)cc1OC (racemic) [Compound 013, 3′a-(3,4-dimethoxyphenyl)-1′-methyl-spiro[1,3-dioxolane-2,6′-2,3,4,5,7,7a-hexahydroindole]]	–	–	–	–	–	–	–	–	–	–	–	–	–	–	–	–	–	–	–	conversion to mesembrine in the Hydrolysis Assay ([1]; acidic pH 2.0, 5° C. as printed): not at 5 °C; conversion to mesembrine in the Hydrolysis Assay ([1]; acidic pH 2.0, temperatures of 37 and 50° C.): converted to mesembrine; Conversion (%) ([1]; pH = 2.0, 25° C., 0-24 h): 0%; Notes (hydrolysis) ([1]; pH = 2.0, 25° C., 0-24 h): Stable; Conversion (%) ([1]; pH = 2.0, 37° C., 16 h): 17%; Conversion (%) ([1]; pH = 2.0, 37° C., 24 h): 22%; Conversion (%) ([1]; pH = 2.0, 37° C., 42 h): 35%; Conversion (%) ([1]; pH = 2.0, 37° C., 56 h): 50%; Conversion (%) ([1]; pH = 2.0, 37° C., 7 d): 77%; Conversion (%) ([1]; pH = 2.0, 50° C., 10 min): 1%; Conversion (%) ([1]; pH = 2.0, 50° C., 40 min): 2%; Conversion (%) ([1]; pH = 2.0, 50° C., 120 min): 19%; Conversion (%) ([1]; pH = 2.0, 50° C., 22 h): 90%
COc1ccc([C@]23CCN(C)[C@H]2CC2(CC3)SCCS2)cc1OC (racemic) [Compound 014, (7′aS)-3′a-(3,4-dimethoxyphenyl)-1′-methyl-spiro[1,3-dithiolane-2,6′-2,3,4,5,7,7a-hexahydroindole]]	–	–	–	–	–	–	–	–	–	–	–	–	–	–	–	–	–	–	–	Conversion (%) ([1]; pH = 2.0, 25° C., 0-24 h): 0%; Notes (hydrolysis) ([1]; pH = 2.0, 25° C., 0-24 h): Stable
COc1ccc([C@@]23CC/C(=N\NC(=O)c4cccnc4)C[C@@H]2N(C)CC3)cc1OC [Compound 036, N-[[(3aS,7aS)-3a-(3,4-dimethoxyphenyl)-1-methyl-2,3,4,5,7,7a-hexahydroindol-6-ylidene]amino]pyridine-3-carboxamide]	100	100	100	100	100	100	–	–	–	–	–	–	–	–	–	–	–	–	–	Notes (hydrolysis) ([1]; pH = 2.0, 37° C., 0 to 1 min): Hydrolyzed; Conversion (%) ([1]; pH = 2.0, 37° C., 1 min): 100%; Conversion (%) ([1]; pH = 2.0, 37° C., time 0): 0%
COc1ccc([C@@]23CCC(OC(=O)c4ccc(N(C)C)cc4)=C[C@@H]2N(C)CC3)cc1OC [Compound 355, [(3aS,7aS)-3a-(3,4-dimethoxyphenyl)-1-methyl-3,4,5,7a-tetrahydro-2H-indol-6-yl]4-(dimethylamino)benzoate]	0	0	0	0	0	0	0.0	100.0	50.6	30.8	9.9	0.5	0.0	100.0	>99	>99	>99	>99	93.2	Condition 2 Conversion (%) ([3]; time 1 min): 0%; Condition 2 Conversion (%) ([3]; time 5 min): 0%; Condition 2 Conversion (%) ([3]; time 30 min): 0%; Condition 2 Conversion (%) ([3]; time 1 h): 0%; Condition 2 Conversion (%) ([3]; time 4 h): 0%; Condition 2 Conversion (%) ([3]; time 24 h): 0%
COc1ccc([C@@]23CCC(OC(=O)c4cccc(C)c4C)=C[C@@H]2N(C)CC3)cc1OC [Compound 373, (3aS,7aS)-3a-(3,4-dimethoxyphenyl)-1-methyl-2,3,3a,4,5,7a-hexahydro-1H-indol-6-yl2,3-dimethylbenzoate]	–	–	–	–	–	–	0	100	82	64	41	12	1	100	93.9	96.5	81.4	66.1	17.2	Prodrug (%) remaining, Rat Plasma ([7]; 0 h): 100.0%; Prodrug (%) remaining, Rat Plasma ([7]; 10 min): 81.0%; Prodrug (%) remaining, Rat Plasma ([7]; 0.5 h): 58.4%; Prodrug (%) remaining, Rat Plasma ([7]; 1 h): 26.8%; Prodrug (%) remaining, Rat Plasma ([7]; 2 h): 5.2%; Prodrug (%) remaining, Rat Plasma ([7]; 4 h): 1.3%; Prodrug (%) remaining, Human Plasma ([8]; 0 h): 100.0%; Prodrug (%) remaining, Human Plasma ([8]; 10 min): 96.3%; Prodrug (%) remaining, Human Plasma ([8]; 0.5 h): >99%; Prodrug (%) remaining, Human Plasma ([8]; 1 h): 94.8%; Prodrug (%) remaining, Human Plasma ([8]; 2 h): 89.9%; Prodrug (%) remaining, Human Plasma ([8]; 4 h): 96.3%
COc1ccc([C@@]23CCC(OC(=O)c4cccc(C)c4)=C[C@@H]2N(C)CC3)cc1OC [Compound 374, (3aS,7aS)-3a-(3,4-dimethoxyphenyl)-1-methyl-2,3,3a,4,5,7a-hexahydro-1H-indol-6-yl3-methylbenzoate]	–	–	–	–	–	–	0.00	100	33	4	0	0	0	100	98	88	84	62	11	Human Plasma Compound 001 (%) ([4]; 30 min): 3.19%; Human Plasma Compound 001 (%) ([4]; 60 min): 5.92%; Human Plasma Compound 001 (%) ([4]; 120 min): 9.01%; Human Plasma Compound 001 (%) ([4]; 240 min): 7.54%; Prodrug (%) remaining, Rat Plasma ([7]; 0 h): 100.0%; Prodrug (%) remaining, Rat Plasma ([7]; 10 min): 9.7%; Prodrug (%) remaining, Rat Plasma ([7]; 0.5 h): 0.3%; Prodrug (%) remaining, Rat Plasma ([7]; 1 h): 0.1%; Prodrug (%) remaining, Rat Plasma ([7]; 2 h): 0.0%; Prodrug (%) remaining, Rat Plasma ([7]; 4 h): 0.0%; Prodrug (%) remaining, Human Plasma ([8]; 0 h): 100.0%; Prodrug (%) remaining, Human Plasma ([8]; 10 min): >99%; Prodrug (%) remaining, Human Plasma ([8]; 0.5 h): >99%; Prodrug (%) remaining, Human Plasma ([8]; 1 h): >99%; Prodrug (%) remaining, Human Plasma ([8]; 2 h): >99%; Prodrug (%) remaining, Human Plasma ([8]; 4 h): 95.4%
